Experimental data taken from ChEMBL document CHEMBL4007427, “Inhibition of the Aldehyde Dehydrogenase 1/2 Family by Psoralen and Coumarin Derivatives” (J Med Chem, 2017).
pIC50, pKi: −log10 of the molar value.

How the values were obtained:
[1] = target: T1, Retinaldehyde dehydrogenase 3 (Homo sapiens, UniProt P47895); assay: Activation of full length recombinant human ALDH1A3 expressed in Escherichia coli BL21(DE3) preincubated for 2 mins followed by addition of propionaldehyde as substrate in presence of NAD+ by spectrophotometric method
T1 sequence (P47895 whole entry): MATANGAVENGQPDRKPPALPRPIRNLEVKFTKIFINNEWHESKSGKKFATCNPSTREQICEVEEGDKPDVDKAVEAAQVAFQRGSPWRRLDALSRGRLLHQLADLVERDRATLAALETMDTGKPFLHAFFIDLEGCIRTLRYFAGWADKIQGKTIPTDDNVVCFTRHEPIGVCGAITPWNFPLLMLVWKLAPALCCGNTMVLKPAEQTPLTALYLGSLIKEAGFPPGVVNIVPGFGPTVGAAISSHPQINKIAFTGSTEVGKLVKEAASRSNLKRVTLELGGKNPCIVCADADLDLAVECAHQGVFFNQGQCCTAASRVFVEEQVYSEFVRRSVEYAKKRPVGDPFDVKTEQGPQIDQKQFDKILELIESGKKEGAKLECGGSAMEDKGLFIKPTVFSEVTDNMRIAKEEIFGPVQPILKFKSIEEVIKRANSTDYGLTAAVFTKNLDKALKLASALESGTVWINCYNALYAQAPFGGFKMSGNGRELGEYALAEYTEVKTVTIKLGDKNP

[2] = target: T2, Aldehyde dehydrogenase 1A1 (Homo sapiens) (UniProt P00352); assay: Inhibition of full length recombinant human ALDH1A1 expressed in Escherichia coli BL21(DE3) assessed as remaining dehydrogenase activity by measuring NAD(P)H level at 10 uM preincubated for 2 mins followed by addition of propionaldehyde as substrate in presence of NAD+ by spectrophotometric method
T2 sequence (whole entry): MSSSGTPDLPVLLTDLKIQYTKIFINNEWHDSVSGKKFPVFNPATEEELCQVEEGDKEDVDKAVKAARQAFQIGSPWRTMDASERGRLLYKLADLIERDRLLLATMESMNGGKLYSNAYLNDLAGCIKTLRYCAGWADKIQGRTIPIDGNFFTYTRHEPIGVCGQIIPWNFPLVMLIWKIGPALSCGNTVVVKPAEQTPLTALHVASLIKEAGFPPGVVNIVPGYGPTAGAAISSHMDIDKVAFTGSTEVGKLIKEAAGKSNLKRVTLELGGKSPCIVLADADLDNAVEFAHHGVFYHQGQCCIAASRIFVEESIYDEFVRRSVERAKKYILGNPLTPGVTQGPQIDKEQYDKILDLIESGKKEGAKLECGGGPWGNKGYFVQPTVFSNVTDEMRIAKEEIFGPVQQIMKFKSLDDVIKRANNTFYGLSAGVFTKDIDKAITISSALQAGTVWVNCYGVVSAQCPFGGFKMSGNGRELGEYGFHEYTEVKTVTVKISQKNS

[3] = target: T3, Aldehyde dehydrogenase 1A1 (Homo sapiens, UniProt P00352)
T3 sequence (P00352 whole entry): T2 sequence (whole entry)
Description: (§1) Inhibition of full length recombinant human ALDH1A1 expressed in Escherichia coli BL21(DE3) assessed as reduction in dehydrogenase activity by measuring NAD(P)H level preincubated for 2 mins followed by addition of propionaldehyde as substrate in presence of NAD+ by spectrophotometric method

[4] = target: T4, Aldehyde dehydrogenase, mitochondrial (Homo sapiens, UniProt P05091)
T4 sequence (P05091 whole entry): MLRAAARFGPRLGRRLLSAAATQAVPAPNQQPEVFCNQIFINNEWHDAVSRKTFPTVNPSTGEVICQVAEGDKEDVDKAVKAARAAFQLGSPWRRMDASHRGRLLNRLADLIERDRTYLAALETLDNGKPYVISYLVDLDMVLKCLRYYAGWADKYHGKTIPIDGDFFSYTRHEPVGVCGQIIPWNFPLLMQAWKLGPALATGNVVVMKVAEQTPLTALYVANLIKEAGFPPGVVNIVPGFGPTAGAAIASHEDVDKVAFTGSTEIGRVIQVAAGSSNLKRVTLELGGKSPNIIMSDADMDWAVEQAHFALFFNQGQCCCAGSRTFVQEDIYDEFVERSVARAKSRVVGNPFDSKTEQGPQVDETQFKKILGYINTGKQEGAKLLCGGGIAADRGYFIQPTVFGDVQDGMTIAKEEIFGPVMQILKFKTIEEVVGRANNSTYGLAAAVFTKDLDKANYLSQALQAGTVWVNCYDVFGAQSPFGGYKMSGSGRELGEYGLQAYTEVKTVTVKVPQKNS
Description: Competitive inhibition of full length recombinant human ALDH2 expressed in Escherichia coli assessed as reduction in dehydrogenase activity using propionaldehyde as substrate in presence of varying levels NAD+ by Lineweaver-Burk plot analysis

[5] = target: T1, Retinaldehyde dehydrogenase 3
Description: Inhibition of full length recombinant human ALDH1A3 expressed in Escherichia coli BL21(DE3) assessed as reduction in dehydrogenase activity by measuring NAD(P)H level preincubated for 2 mins followed by addition of propionaldehyde as substrate in presence of NAD+ by spectrophotometric method

[6] = target: T3, Aldehyde dehydrogenase 1A1; remark: listed apart in the source
Description: as §1

[7] = target: T5, Cytosolic 10-formyltetrahydrofolate dehydrogenase (Rattus norvegicus, UniProt P28037); assay: Inhibition of rat ALDH1L1 assessed as reduction in dehydrogenase activity by measuring NAD(P)H level preincubated for 2 mins followed by addition of propionaldehyde as substrate in presence of NAD+ by spectrophotometric method
T5 sequence (P28037 whole entry): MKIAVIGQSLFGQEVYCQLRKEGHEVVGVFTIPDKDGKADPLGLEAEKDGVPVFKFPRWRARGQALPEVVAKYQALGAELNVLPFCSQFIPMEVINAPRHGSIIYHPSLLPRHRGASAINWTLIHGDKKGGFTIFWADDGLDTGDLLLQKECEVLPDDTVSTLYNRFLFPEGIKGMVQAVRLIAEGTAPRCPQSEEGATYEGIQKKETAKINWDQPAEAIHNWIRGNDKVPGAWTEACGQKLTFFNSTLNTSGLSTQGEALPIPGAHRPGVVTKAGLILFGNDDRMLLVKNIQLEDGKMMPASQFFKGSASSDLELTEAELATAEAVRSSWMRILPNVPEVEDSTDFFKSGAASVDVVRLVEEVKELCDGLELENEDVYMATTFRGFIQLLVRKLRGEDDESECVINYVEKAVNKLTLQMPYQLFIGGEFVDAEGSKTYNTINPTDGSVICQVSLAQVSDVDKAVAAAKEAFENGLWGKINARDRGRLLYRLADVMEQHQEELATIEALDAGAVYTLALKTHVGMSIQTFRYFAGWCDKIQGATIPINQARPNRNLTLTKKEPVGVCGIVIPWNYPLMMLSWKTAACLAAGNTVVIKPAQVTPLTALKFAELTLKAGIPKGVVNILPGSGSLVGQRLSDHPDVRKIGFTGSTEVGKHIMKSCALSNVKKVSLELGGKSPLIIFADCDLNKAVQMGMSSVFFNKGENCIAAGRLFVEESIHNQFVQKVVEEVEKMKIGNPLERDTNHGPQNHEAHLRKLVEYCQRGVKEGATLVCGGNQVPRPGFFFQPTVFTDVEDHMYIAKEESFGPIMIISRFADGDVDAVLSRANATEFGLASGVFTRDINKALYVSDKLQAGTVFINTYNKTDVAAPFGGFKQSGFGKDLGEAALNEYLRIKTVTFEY

Row | Compound | AC50 [1] | Activity [2] | IC50 [3] | pKi [4] | pIC50 [5] | pIC50 [6] | IC50 [7]
1 | C/C(=N\O)c1cc2cc(Br)ccc2oc1=O | 35000 nM | 96% | Not Active | 5.62 | – | – | –
2 | Cc1oc2cc3oc(=O)c4c(c3cc2c1C)CCC4 | – | 50.8% | – | – | 6.77 | 6.77 | –
3 | Cc1oc2cc3oc(=O)c(CCC(=O)N4CCCCC4)c(C)c3cc2c1C | – | 8.69% | – | 5.96 | 4.85 | 6.89 | –
4 | CCCc1c(C)c2cc3c(C)c(C)oc3cc2oc1=O | – | 36.3% | – | 7.72 | 6.40 | 6.66 | Not Active
5 | COC(=O)C(C)Oc1ccc2c(C)cc(=O)oc2c1 (stereo unspecified) | – | 84.8% | Not Active | 6.51 | – | – | Not Active
6 | Cc1oc2cc3oc(=O)c(C)c(C)c3cc2c1C | – | 90.5% | Not Active | – | 6.57 | – | Not Active
7 | CCCc1cc(=O)oc2cc3oc(C)c(C)c3cc12 | 870 nM | 74.1% | Not Active | – | – | – | –
8 | CCCc1c(C)c2cc3c(C)coc3cc2oc1=O | – | 48.6% | – | – | 5.96 | 6.47 | Not Active
